Legend:
[1] = system: Setbp1-immortalized mouse myeloid progenitors; assay: Colony formation on methylcellulose by Setbp1-immortalized myeloid progenitors; format: cell-based; details: for colony formation: Setbp1-immortalized cells, 1 nM, 5 nM, 10 nM, and 100 nM
Protocol: (§1) In Vitro and In Vivo Testing of Compound (1AA). The activity of Compound 1AA against myeloid neoplasms was first determined in vitro by assessing its inhibitory effect on the colony formation by Setbp1/Setbp1(D/N)-immortalized mouse myeloid progenitors on IMDM methylcellulose medium with 20% horse serum plus mouse Scf (50 ng/ml) and Il-3 (10 ng/ml). The in vivo activity of Compound 1AA was evaluated by assessing its capability to reduce spleen size and to extend the survival of mice transplanted with Setbp1(D/N)-induced leukemia cells. For the generation of leukemic mice, 5×10^5 spleen cells from a primary recipient mouse with Setbp1(D/N)-induced leukemia were injected into the tail vein of each sublethally irradiated (550 rads from a ^137Cs source) B6-Ly5.2 female mouse. Starting from day 10 after transplantation, the recipient mice were treated with Compound (1AA) (33 mg/kg, dissolved in saline) or saline through five intra-peritoneal injections. The activity of Compound 1AA against solid tumors is determined by assessing its growth inhibitory effects on different human solid tumor cell lines in culture. Specifically, cellular ATP levels of liquid cultures of these cell lines are measured at 72 hours after treatment with serially diluted concentrations of Compound 1AA and compared to untreated cells.
(§2) Cell Culture Studies of Immortalized Myeloid Progenitors. […]

[2] = system: Setbp1(D/N)-immortalized mouse myeloid progenitors; assay: Colony formation on methylcellulose by Setbp1(D/N)-immortalized myeloid progenitors; format: cell-based; details: for colony formation: Setbp1 (D/N)-immortalized cells, 1 nM
Protocol: as §1, §2

[3] = system: Setbp1-immortalized myeloid progenitor cells; assay: Apoptosis (Annexin V) and differentiation/cytotoxicity (cytospin) in Setbp1-immortalized cells; format: cell-based, mouse; details: for differentiation/cytotoxicity: 100 nM
Protocol: (§3) Cell Culture Studies of Immortalized Myeloid Progenitors. Mouse myeloid progenitors immortalized by 3×FLAG-tagged Setbp1 and Setbp1(D/N) were generated and maintained as previously described using pMYs-3×FLAG-Setbp1-IRES-GFP and pMYs-3×FLAG-Setbp1(D/N)-IRES-GFP viruses respectively (Oakley et al., Blood 119(25): 6099-6108 (2012). Lentiviral transduction of these immortalized cells was carried out by spinoculation in which a mixture of lentivirus and target cells was spun at 2000×g for 90 minutes at 37° C. Transduced cells were selected by treatment with puromycin (2 μg/ml) for 24 hours at 24 hours after lentiviral transduction. Colony formation assays for transduced cells were performed at 48 hours after infection using 1×10^4 puromycin-resistant cells on IMDM methylcellulose medium supplemented with 20% horse serum, mouse Scf (100 ng/ml) and II-3 (10 ng/ml), and puromycin (2 μg/ml) with colony numbers counted after 7 days. For studying effects of KPT-185 (Selleck Chemicals, Houston, TX) in liquid culture, immortalized cells were treated at 2.5×10^5 cells/ml concentration. Detection of apoptosis was performed using PE Annexin V Apoptosis Detection Kit (BD Biosciences). KPT-185 was directly added to methylcellulose medium for assessing its effects on colony formation by immortalized cells.

[4] = system: Setbp1(D/N)-immortalized myeloid progenitors; assay: Apoptosis (Annexin V) and differentiation/cytotoxicity (cytospin) in Setbp1(D/N)-immortalized cells; format: cell-based, mouse; details: for differentiation/cytotoxicity: Setbp1 (D/N)-immortalized cells, 100 nM
Protocol: as §3

[5] = system: Hoxa9, Hoxa10 and Myb mRNA levels; assay: Real-time RT-PCR of Setbp1 target genes in Setbp1-immortalized cells; format: cell-based, mouse; details: for Setbp1 target transcription levels of Hoxa9, Hoxa10 and Myb: 12 hours post-treatment, 1 nM
Protocol: as §3
(§4) Real-Time RT-PCR. For real-time RT-PCR, total RNA was extracted from cells using Nucleospin RNA (Clontech, Duren, Germany). Oligo-dT-primed cDNA samples were prepared using Superscript III (Invitrogen), and real-time PCR analysis was performed in triplicates using SYBR green detection reagents (Invitrogen) on a QuantStudio real time PCR system (Applied Biosystems, Foster City, CA). Relative changes in expression were calculated according to the ΔΔCt method. The cycling conditions were 50° C. for 2 minutes followed by 95° C. for 2 minutes, and then 40 cycles of 95° C. for 15 seconds and 60° C. for 1 minute. […]

[6] = system: Hoxa9, Hoxa10 and Myb mRNA levels; assay: Real-time RT-PCR of Setbp1(D/N) target genes in Setbp1(D/N)-immortalized cells; format: cell-based, mouse; details: for Setbp1 (D/N) target transcription levels of Hoxa9, Hoxa10 and Myb: Setbp1 (D/N)-immortalized cells, 12 hours post-treatment, 1 nM
Protocol: as §3, §4

[7] = target: T1, interaction between Setbp1(D/N) and XPO1 (Mus musculus, UniProt Q9Z180, D859N); assay: Co-immunoprecipitation / Western blotting of nuclear extracts of transfected HEK293T cells; format: cell-based; details: 1 μM, 10 μM and 25 μM, 12 hours, M2 immunoprecipitates
T1 construct: expressed in transfected cells; host or cells: HEK293T
T1 sequence (Q9Z180 whole entry D859N): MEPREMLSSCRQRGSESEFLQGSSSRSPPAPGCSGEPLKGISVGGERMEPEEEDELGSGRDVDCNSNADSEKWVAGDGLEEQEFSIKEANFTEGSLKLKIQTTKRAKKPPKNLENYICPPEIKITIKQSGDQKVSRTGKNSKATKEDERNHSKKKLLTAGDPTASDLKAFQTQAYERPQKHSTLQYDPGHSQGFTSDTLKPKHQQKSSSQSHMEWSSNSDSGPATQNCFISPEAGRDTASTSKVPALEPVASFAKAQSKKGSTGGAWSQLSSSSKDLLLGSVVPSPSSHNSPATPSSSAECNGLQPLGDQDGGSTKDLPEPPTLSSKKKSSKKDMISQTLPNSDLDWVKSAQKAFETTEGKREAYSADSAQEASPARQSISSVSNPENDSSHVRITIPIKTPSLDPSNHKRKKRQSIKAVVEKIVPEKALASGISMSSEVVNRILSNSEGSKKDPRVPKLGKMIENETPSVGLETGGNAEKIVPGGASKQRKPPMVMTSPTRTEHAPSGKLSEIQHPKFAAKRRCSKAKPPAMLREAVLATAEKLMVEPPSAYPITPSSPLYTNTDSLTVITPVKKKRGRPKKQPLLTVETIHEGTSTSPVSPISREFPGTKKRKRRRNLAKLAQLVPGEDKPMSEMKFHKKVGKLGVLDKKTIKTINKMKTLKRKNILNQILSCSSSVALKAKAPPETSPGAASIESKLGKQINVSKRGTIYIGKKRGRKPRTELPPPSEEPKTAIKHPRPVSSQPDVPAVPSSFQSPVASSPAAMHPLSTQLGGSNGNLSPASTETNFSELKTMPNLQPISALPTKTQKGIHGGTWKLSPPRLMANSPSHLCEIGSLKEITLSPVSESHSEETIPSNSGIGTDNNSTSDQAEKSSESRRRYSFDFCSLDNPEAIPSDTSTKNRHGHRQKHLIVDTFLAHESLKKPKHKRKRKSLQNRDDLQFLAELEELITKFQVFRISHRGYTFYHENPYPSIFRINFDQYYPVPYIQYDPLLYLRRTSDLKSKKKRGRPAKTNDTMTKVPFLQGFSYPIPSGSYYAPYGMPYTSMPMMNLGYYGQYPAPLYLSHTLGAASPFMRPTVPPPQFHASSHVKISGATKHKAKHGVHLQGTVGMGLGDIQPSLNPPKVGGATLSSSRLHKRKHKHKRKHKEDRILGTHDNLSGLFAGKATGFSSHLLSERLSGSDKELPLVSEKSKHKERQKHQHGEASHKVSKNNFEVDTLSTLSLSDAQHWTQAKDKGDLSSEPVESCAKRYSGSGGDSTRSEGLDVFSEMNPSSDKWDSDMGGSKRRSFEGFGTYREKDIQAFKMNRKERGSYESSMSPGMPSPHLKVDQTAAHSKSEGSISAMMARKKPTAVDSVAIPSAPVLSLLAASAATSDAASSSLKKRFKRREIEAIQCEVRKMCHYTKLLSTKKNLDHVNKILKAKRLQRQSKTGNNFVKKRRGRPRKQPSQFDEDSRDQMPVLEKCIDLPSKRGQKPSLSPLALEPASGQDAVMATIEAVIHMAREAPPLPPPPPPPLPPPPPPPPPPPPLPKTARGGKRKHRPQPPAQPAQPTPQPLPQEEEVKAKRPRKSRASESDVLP
Protocol: Western blotting analyses using indicated specific antibodies were performed on M2 immunoprecipitates prepared from nuclear extracts of HEK293T cells transiently transfected with pMYs-3×FLAG-Setbp1-IRES-GFP and subsequently treated with different concentrations of Compound (1AA) and control DMSO for 12 hours.
Immunoprecipitation. HEK293T cells were transfected with the indicated expression constructs using LipoD293 (SignaGen Laboratories, Rockville, MD) and nuclear extracts were isolated 48 hours after transfection using the Nuclear Complex Co-IP kit (Active Motif, Carlsbad, CA). Nuclear lysates were incubated with either 4 μg of anti-Flag M2 (Sigma Aldrich, St. Louis, MO) or anti-XPO1 (NB100-79802, Novus Biological, Centennial, CO) for 4 hours at 4° C. Subsequently, Dynabeads protein A (Invitrogen, Carlsbad, CA) were added to the nuclear lysate/antibody mixture and incubated for an additional 2 hours at 4° C. Immunoprecipitated proteins were eluted and analyzed by Western blotting analysis. For immunoprecipitation experiments using in vitro transcribed and translated proteins, the corresponding cDNAs were cloned into pCMV-TNT and the TnT T7 Coupled Wheat Germ Extract (Promega, Madison, WI) system was used according to the manufacturer's instructions.
Western Blotting Analysis. […]

[8] = system: Setbp1(D/N)-induced leukemia; assay: Mice transplanted with Setbp1(D/N)-induced AML, treatment with Compound (1AA); format: in vivo, mouse; details: 33 mg/kg, five intra-peritoneal injections from day 10 after transplantation, vs vehicle
Protocol: as §1

[9] = system: Setbp1(D/N)-induced leukemia; assay: Mice transplanted with Setbp1(D/N)-induced AML, treatment with KPT-330; format: in vivo, mouse
Protocol: Bone Marrow Transplantation and In Vivo Treatment with KPT-330. For generation of leukemic mice, 1×10^6 spleen cells from a primary recipient mouse with Setbp1(D/N)-induced leukemia were injected into the tail vein of each lethally irradiated (1100 rads from a ^137Cs source) B6-Ly5.2 female mouse along with 7.5×10^5 supporting bone marrow cells from un-irradiated B6-Ly5.2 mice. Starting from day 7 after transplantation, the recipient mice were treated with KPT-330 (20 mg/kg, dissolved in 2% DMSO/49% PEG300/ddH2O) or vehicle through oral gavage once every two days. KPT-330 was purchased from Selleck Chemicals.

Nc1ccc(Cn2ccc3c4c(N)nc(N)nc4ccc32)cc1 [Compound (2AA)]
colony formation [1]: inhibits colony formation | colony formation ([2]; 10 nM, 50 nM, 100 nM, 300 nM and 500 nM): inhibits colony formation | differentiation/cytotoxicity [3]: induces differentiation/cytotoxicity | differentiation/cytotoxicity [4]: induces differentiation/cytotoxicity | Setbp1 target transcription levels of Hoxa9, Hoxa10 and Myb ([5]; 50 nM, 100 nM and 300 nM): reduces Setbp1 target transcription levels | Setbp1 (D/N) target transcription levels of Hoxa9, Hoxa10 and Myb ([6]; 50 nM, 100 nM and 300 nM): reduces Setbp1 (D/N) target transcription levels

COc1cc(-c2ncn(/C=C\C(=O)OC(C)C)n2)cc(C(F)(F)F)c1 [KPT-185, reference compound]
relative colony-forming potential ([1]; Setbp1-immortalized myeloid progenitors, indicated concentrations, vs DMSO): significantly reduces colony-forming potential | relative colony-forming potential ([2]; Setbp1(D/N)-immortalized myeloid progenitors, indicated concentrations, vs DMSO): significantly reduces colony-forming potential | apoptosis (Annexin V staining) ([3]; 48 hours after treatment, vs DMSO): induces apoptosis | differentiation: number of mature neutrophils (cytospin) ([3]; 72 hours after treatment): significantly increase | apoptosis (Annexin V staining) ([4]; Setbp1(D/N)-immortalized cells, 48 hours after treatment, vs DMSO): induces apoptosis | differentiation (cytospin) ([4]; Setbp1(D/N)-immortalized cells, 72 hours after treatment): induces apoptosis and differentiation | Hoxa9/Hoxa10/Myb mRNA levels ([5]; 300 nM, 2.5 hours after treatment, vs DMSO): significantly down-regulated | Hoxa9/Hoxa10/Myb mRNA levels ([6]; Setbp1(D/N)-immortalized cells, 300 nM, 2.5 hours after treatment, vs DMSO): significantly down-regulated

Cc1c2cc[n+](CCN3CCCCC3)cc2c(C)c2c1[nH]c1ccc(O)cc12.[Br-] [Compound (1AA)]
colony formation [1]: inhibits colony formation | colony formation ([2]; 5 nM, 10 nM, and 100 nM): inhibits colony formation | differentiation/cytotoxicity [3]: induces differentiation/cytotoxicity | differentiation/cytotoxicity [4]: induces differentiation/cytotoxicity | Setbp1 target transcription levels of Hoxa9, Hoxa10 and Myb ([5]; 10 nM, 100 nM and 500 nM): reduces Setbp1 target transcription levels | Setbp1 (D/N) target transcription levels of Hoxa9, Hoxa10 and Myb ([6]; 10 nM, 100 nM and 500 nM): reduces Setbp1 (D/N) target transcription levels | interaction between Setbp1(D/N) and XPO1 [7]: disrupts the interaction | spleen size (spleen weights when moribund) [8]: reduced the spleen size | survival of leukemic mice ([8]; p=0.0034, Log-rank test): significantly extended the survival

O=C(/C=C\n1cnc(-c2cc(C(F)(F)F)cc(C(F)(F)F)c2)n1)NNc1cnccn1 [KPT-330]
extension of survival time ([9]; 20 mg/kg oral gavage every 2 days from day 7, vehicle mice moribund in 17 days): ≤ 50% | survival of transplanted mice ([9]; 20 mg/kg oral gavage every 2 days from day 7 after transplantation, vs vehicle, p=0.012, Log-rank test): prolonged the survival
